The values that follow come from EP0314011A2, “Purine derivatives” (F. HOFFMANN-LA ROCHE AG, priority 1987, dated 1989).

For the experiment, the system named is HTLV III. The experiment in a line: Anti-HIV activity: p24 antigen capture assay in HTLV III-infected C8166 cells. It counts as cell-based. The note with it: concentration giving 50% protection; C8166 cells (human CD4+ T-lymphoblast line) infected with 10-fold TCD50 of virus; 72 h incubation at 37°C; viral protein 24 antigen in supernatant. How it is done: Die Aktivität der Purinderivate der vorliegenden Erfindung gegen HIV kann wie folgt nachgewiesen werden.
In diesem Versuch verwendet man HTLV III, gezüchtet in C8166-Zellen (eine menschliche CD4⁺ T-Lymphoblastenlinie), RPM1 1640 Medium mit Bicarbonatpuffer, Antibiotika und l0%igem fötalem Rinderserum. Eine Zellensuspension wird mit der 10-fachen TCD₅₀ des Virus infiziert. Man lässt 90 Minuten bei 37°C adsorbieren. Die Zellen werden mit dem Medium gewaschen. Der Versuch wird in 6 ml Gewebekulturröhrchen durchgeführt. Jedes Röhrchen enthält 2 x 10⁵ infizierte Zellen in 1,5 ml Medium. Es werden 15 µl einer Lösung der Substanz in wässrigem Medium oder in DMSO zugesetzt. Nach 72 Stunden Inkubation bei 37°C in einer feuchten 5% CO₂ enthaltenden Atmosphäre werden die Kulturen zentrifugiert. Ein aliquoter Teil des Ueberstandes wird solubilisiert und einem Antigenabfangversuch unterworfen unter Verwendung eines primären Antiserums mit besonderer Reaktivität gegen virales Protein 24 und eines Meerrettich-Peroxidase-Detektionssystems. Die Farbenerzeugung wird spektrophotometrisch gemessen und in Abhängigkeit der Konzentration der Testsubstanz dargestellt. Die einen 50%igen Schutz erzeugende Konzentration (IC₅₀) wird ermittelt. Die Resultate sind in der folgenden Tabelle angegeben: […]

In turn, `[N-]=[N+]=Nc1nc(N)c2ncn([C@@H]3O[C@H](CO)C[C@@H]3F)c2n1` [Beispiel 2, 6-Amino-2-azido-9-(2,3-dideoxy-2-fluor-β-D-threopentofuranosyl)-9H-purin] registered an IC50 of 10 µM.

Regarding `Nc1nc(Cl)nc2c1ncn2[C@@H]1O[C@H](CO)C[C@@H]1F` [Beispiel 1, 6-Amino-2-chlor-9-(2,3-dideoxy-2-fluor-β-D-threopentofuranosyl)-9H-purin], the IC50 amounted to 1 µM.

Regarding `Nc1nc(N)c2ncn([C@@H]3O[C@H](CO)C[C@@H]3F)c2n1` [Beispiel 3, 2,6-Diamino-9-(2,3-dideoxy-2-fluor-β-D-threopentofuranosyl)-9H-purin], the midpoint of inhibition, the IC50, lay at 1 µM.

One may read the IC50 as the point on the concentration scale where inhibition reaches its midpoint. High values mean lower potency, low ones higher potency.
